The text below walks through data of patent US5010104A, “Tricyclic compounds” (Kyowa Hakko Kogyo Co., Ltd., priority 1987, dated 1991).

The test system of data set [1] is dd strain male mice. Put plainly: Acute Toxicity Test: minimum lethal dose, mortality observed for seven days. The settings on record: mortality over seven days; for Acute Toxicity (MLD) ip: intraperitoneal (ip; 100 mg/kg); for Acute Toxicity (MLD) po: oral (po; 300 mg/kg). It counts as in vivo. As for the experimental part: Using three dd strain male mice weighing 20±1 g, a test compound was orally (po; 300 mg/kg) or intraperiotoneally (ip; 100 mg/kg) administered. MLD (the minimum lethal dose) was determined by observing the mortality for seven days after administration.

Data set [2] deals with T1, TXA2 /prostaglandin H2 receptor (Cavia porcellus, UniProt A0A286Y4I8).
T1 construct: platelet rich plasma (PRP) was collected; endogenous in cells; host or cells: platelets in platelet rich plasma from male guinea pigs (Hartley strain)
T1 sequence (A0A286Y4I8 1-347): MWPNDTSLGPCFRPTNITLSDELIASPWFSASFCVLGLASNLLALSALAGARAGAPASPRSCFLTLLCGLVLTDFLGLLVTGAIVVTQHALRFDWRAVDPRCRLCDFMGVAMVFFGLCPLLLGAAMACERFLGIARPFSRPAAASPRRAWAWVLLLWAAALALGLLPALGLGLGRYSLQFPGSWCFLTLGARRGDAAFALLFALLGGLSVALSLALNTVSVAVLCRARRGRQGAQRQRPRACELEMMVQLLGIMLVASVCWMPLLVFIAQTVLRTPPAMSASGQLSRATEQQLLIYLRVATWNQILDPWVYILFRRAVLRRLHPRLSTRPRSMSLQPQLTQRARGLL
Description: Test on Anti-platelet Activity (TXA2 Antagonizing Test): inhibition of U-46619-induced platelet aggregation in guinea pig platelet rich plasma. The settings on record: minimum concentration inhibiting platelet aggregation by 30% or more; U-46619 0.5-1 μM; guinea pig PRP; 3 minutes pretreatment. It counts as cell-based. As for the experimental part:
Test on Anti-platelet Activity (TXA2 Antagonizing Test)
Using guinea pig platelet, influence of the compounds in accordance with the present invention on platelet aggregation induced by U-46619 (9,11-dideoxy-9α,11a-methanoepoxyprostaglandin F2 α; manufactured by Cayman Chemica Co., Ltd. ) which was a TXA2 /prostaglandin H2 receptor stimulant was examined.
Male guinea pig (Hartlet strain; body weight, 300 to 600 g) was anesthesized by intraperitoneal administration of sodium pentobarbital (30 mg/kg) and blood was collected from the descending aorta of the abdomen with a 1/10 volume of sodium citrate. By centrifugation (KC-70: manufactured by Kubota Co., Ltd.) at 800 rpm for 10 minutes, platelet rich plasma (PRP) was collected. Platelet aggregation induced by U-46619 (0.5-1 μM) was determined by photometry [Born, G. V. R. et al., Nature (London), 194, 927-929 (1962)]. A test compound was pretreated before 3 minutes and an ability of inhibiting aggregation was measured. The minimum concentration of inhibiting platelet aggregation by 30% or more was defined as the minimum effective concentration (MEC) of the test compound.

As to `O=C(O)COc1ccc(CCNS(=O)(=O)c2ccccc2)cc1` [BM13177, reference compound], in data set [1], the “Acute Toxicity (MLD) ip” value is above 100 mg/kg and the “Acute Toxicity (MLD) po” value is above 300 mg/kg. The “TXA2 Antagonizing Activity (MEC)” value in data set [2] was determined as 3 µg/mL.

In the case of `O=C(O)c1ccc2c(c1)C(SCCNS(=O)(=O)c1ccccc1)c1cc(Br)ccc1CO2` (stereo not drawn) [Compound 6b, 9-Bromo-11-[2-[(phenylsulfonyl)amino]ethyl]thio-6,11-dihydrodibenz[b,e]oxepin-2-carboxylic acid], in data set [1], the “Acute Toxicity (MLD) ip” value is on record as above 100 mg/kg and the “Acute Toxicity (MLD) po” value is on record as above 300 mg/kg. Further, the “TXA2 Antagonizing Activity (MEC)” value in data set [2] was determined as 0.03 µg/mL.

Consider `O=C(O)c1ccc2c(c1)C(SCCNS(=O)(=O)c1ccc(F)cc1)c1ccccc1CO2` (stereo not drawn) [Compound 10b, 11-[2-[(4-Fluorophenylsulfonyl)amino]ethyl]thio-6,11-dihydrodibenz[b,e]oxepin-2-carboxylic acid], for which, in data set [1], the “Acute Toxicity (MLD) ip” value is on record as above 100 mg/kg and the “Acute Toxicity (MLD) po” value was above 300 mg/kg. Also, the “TXA2 Antagonizing Activity (MEC)” value in data set [2] worked out at 0.3 µg/mL.

Regarding `O=C(O)c1ccc2c(c1)C(SCCNS(=O)(=O)c1cccs1)c1ccccc1CO2` (stereo not drawn) [Compound 15b, 11-[2-[(2-Thienylsulfonyl)amino]ethyl]thio-6,11-dihydrodibenz[b,e]oxepin-2-carboxylic acid], in data set [1], the “Acute Toxicity (MLD) ip” value is on record as above 100 mg/kg and the “Acute Toxicity (MLD) po” value is recorded as above 300 mg/kg. For the same compound, the “TXA2 Antagonizing Activity (MEC)” value in data set [2] was determined as 0.3 µg/mL.

With `O=C(O)c1ccc2c(c1)C(SCCNS(=O)(=O)c1cccc3cccnc13)c1ccccc1CO2` (stereo not drawn) [Compound 16b, 11-[2-[(8-Quinolylsulfonyl)amino]ethyl]thio-6,11-dihydrodibenz[b,e]oxepin-2-carboxylic acid], in data set [1], the “Acute Toxicity (MLD) ip” value is above 100 mg/kg and the “Acute Toxicity (MLD) po” value is above 300 mg/kg. Further, the “TXA2 Antagonizing Activity (MEC)” value in data set [2] is 3 µg/mL.

Take `COc1ccccc1C(=O)NCCSC1c2ccccc2COc2ccc(C(=O)O)cc21` (stereo not drawn) [Compound 33b, 11-[2-[(2-Methoxybenzoyl)amino]ethyl]thio-6,11-dihydrodibenz[b,e]oxepin-2-carboxylic acid]: in data set [1], the “Acute Toxicity (MLD) ip” value is above 100 mg/kg and the “Acute Toxicity (MLD) po” value is above 300 mg/kg. In addition, the “TXA2 Antagonizing Activity (MEC)” value in data set [2] amounted to 0.3 µg/mL.

In the case of `O=C(O)c1ccc2c(c1)C(SCCNS(=O)(=O)c1ccccc1)c1ccccc1CS2` (stereo not drawn) [Compound 55b, 11-[2-[(Phenylsulfonyl)amino]ethyl]thio-6,11-dihydrodibenzo[b,e]thiepin-2carboxylic acid], in data set [1], the “Acute Toxicity (MLD) ip” value is given as above 100 mg/kg and the “Acute Toxicity (MLD) po” value was above 300 mg/kg. For the same compound, the “TXA2 Antagonizing Activity (MEC)” value in data set [2] is 3 µg/mL.

On to `O=C(O)Cc1ccc2c(c1)/C(=C/CCNS(=O)(=O)c1ccccc1)c1ccccc1CO2` [Compound E-29b], for which, in data set [1], the “Acute Toxicity (MLD) ip” value is above 100 mg/kg and the “Acute Toxicity (MLD) po” value was above 300 mg/kg. For the same compound, the “TXA2 Antagonizing Activity (MEC)” value in data set [2] came out at 1 µg/mL.
